Here are results for one compound from patent US20250352464A1, “TOPICAL COMPOSITIONS AND METHODS FOR TREATING DERMATOPOROSIS” (GALDERMA HOLDING SA, priority 2023, published 2025).

In series [1] the test system is human primary adult dermal fibroblasts and human primary adult dermal keratinocytes. The following applies: 24 h.
Experimental: To determine suitable dosing of Centella asiatica extract and mandelic acid, human primary adult dermal fibroblasts and human primary adult dermal keratinocytes were purchased from ZenBio (https://www.zen-bio.com/, Durham, NC) and plated as per the provided ZenBio protocols in the recommended media from ZenBio.
Approximately 10k cells were plated per well in each well of a 96-well plate. […] Centella asiatica extract concentrations ranged from 0.00025% to 0.25%, in 2× steps. […] After 24 hours of treatment, an alamar blue assay was performed. The plate was then read in an Envision plate reader with 560 nm excitation and 590 nm emission filters to determine cell viability.
Another series concerns human keratinocytes. As to the kind of experiment: in vitro gene expression analysis (RNA sequencing) in keratinocytes. The format is cell-based. The following applies: 72 hrs, mandelic acid 0.05%. The text has this: Genes were annotated using the Reactome Database.
[2] abbreviates: human keratinocytes grown to confluence, Centella asiatica extract 0.005%, combination same concentrations, vs untreated cells.

Regarding `O=C(O)C(O)c1ccccc1` (stereo not drawn) [Mandelic Acid, mandelic acid], in series [1], the “highest concentration not resulting in cytotoxicity” value is 0.05%. Further, in the series on human keratinocytes (setting [2]), the “Modulation of Gene Expression (Fold Change): CEBPB” value is listed as −2.45 Fold Change, the “Modulation of Gene Expression (Fold Change): HIST1H2BD” value is listed as 0.55 Fold Change, the “Modulation of Gene Expression (Fold Change): HIST1H2BG” value came to 0.45 Fold Change and the “Modulation of Gene Expression (Fold Change): HIST1H3D” value is given as −0.23 Fold Change. In addition, in the series with human keratinocytes (setting [2]), the “Modulation of Gene Expression (Fold Change): HIST1H4E” value stood at 0.60 Fold Change, the “Modulation of Gene Expression (Fold Change): HIST1H4H” value is given as −0.54 Fold Change, the “Modulation of Gene Expression (Fold Change): IL1B” value stood at 1.73 Fold Change and the “Modulation of Gene Expression (Fold Change): IL8” value is −1.46 Fold Change. In addition, in the series on human keratinocytes (setting [2]), the “Modulation of Gene Expression (Fold Change): TNF” value is listed as −2.69 Fold Change, the “Modulation of Gene Expression (Fold Change): UBB” value was −3.87 Fold Change, the “Modulation of Gene Expression (Fold Change): UBC” value is recorded as −1.09 Fold Change and the “Modulation of Gene Expression (Fold Change): UBE2C” value stood at 0.51 Fold Change. In the series on human keratinocytes (human keratinocytes, Centella 0.005%, FIG. 5), the “expression of p15 (CDKN2B)” value is reported as “upregulate”. Also, the “pro-inflammatory gene expression (MMP2, HSPA8, CSF2RA, CXCL1, IL2RB, NFKBIA, PTG52)” value with human keratinocytes (human keratinocytes, Centella 0.005%, FIGS. 4A-4G) is recorded as “significantly downregulated”.
